In US6849598B1, “Therapeutic compositions comprising bactericidal/permeability-increasing (BPI) protein products” (XOMA, priority 1995, dated 2005):
In brackets after ≈: the same amount, converted by molar mass. Where two headings read alike, the source gives them in different places.

Tests used:
[1] = system: P. aeruginosa (ATCC 19660); test: Antibiotic susceptibility (MIC, Microscan® MIC Plus Type 2 panel) with rBPI21/P123 and EDTA; assay type: cell-based; set-up: key to susceptibility interpretation of MIC (superscript): R: resistant; I: intermediate; S: susceptible; conditions: for effect of EDTA added to the rBPI21/P123 formulation on susceptibility of the strain to the antibiotic: summary of Table 17
A. baumannii = test: Antibiotic susceptibility (MIC, Sensititre Trays) with rBPI21 poloxamer formulations; assay type: cell-based; conditions: for MIC: Acinetobacter baumannii, read-out: Minimum Inhibitory Concentration
Protocol: The effect of therapeutic compositions of rBPI21 formulated with poloxamer, with or without EDTA, was evaluated on the antibiotic susceptibility of the multiple drug resistant A. baumannii, S. pneumoniae, E. faecium and P. aeruginosa organisms of Example 5. Therapeutic compositions were prepared containing 2 mg/mL rBPI21, (5 mM sodium citrate, 150 mM NaCl) with a 0.2% (w/v) concentration of PLURONIC F68, P103, P104, P105 or P123. The effect on the antibiotic susceptibility of the organisms was determined in Mueller-Hinton Broth plus Cations (CSMHB, Remel), or 40% pooled human serum in CSMHB (Sigma, St. Louis, Mo.), as follows.
Isolated colonies of the organism from overnight cultures were suspended in Microscan® Inoculum Water to a concentration equivalent to a 0.5 McFarland Standard (approximately 1×10^8 CFU/ml), determined using a Microscan® turbidimeter. Aliquots were transferred to either CSMHB or 40% pooled human serum in CSMHB. Each tube contained either a final concentration of 16 μg/mL rBPI21 or an equivalent volume of control buffer. Minimal inhibitory concentrations (MIC) for each antibiotic tested, i.e. the lowest concentration of antibiotic which inhibits visible growth, were determined using gram-negative (MB and MC) and gram-positive (MA) Sensititre Trays (Radiometer America, Westlake, Ohio), which allow for the rapid and simultaneous survey of a broad spectrum of standard antibiotics. Any other antimicrobial panel systems known in the art, such as the Microscan® (Dade Microscan, Sacramento, Calif.), Pasco (DIFCO, Detroit, Mich.) and Alamar (Alamar, Sacramento, Calif.) systems, may alternatively be used to assay for antibiotic susceptibility.
Tables 12-15 below display a summary of the results of the antibiotic screening panels, reported for each strain tested as the MIC of the tested antibiotics in the presence of the indicated rBPI21 therapeutic composition. The antibiotic susceptibility standards (interpretation of an MIC as clinically resistant (R), intermediate (I) or susceptible (S) according to NCCLS standards) applicable to the organism tested appear in superscript next to the MIC.

[2] = rBPI21/P123 at 64 μg/ml rBPI21, With 0% EDTA
[3] = rBPI21/P123 at 64 μg/ml rBPI21, With 0.01% EDTA
[4] = rBPI21/P123 at 64 μg/ml rBPI21, With 0.05% EDTA
[5] = rBPI21/P123 at 64 μg/ml rBPI21, With 0.1% EDTA
[6] = CSMHB, 16 μg/mL rBPI21 with F68
[7] = CSMHB, 16 μg/mL rBPI21 with P103
[8] = CSMHB, 16 μg/mL rBPI21 with P104
[9] = CSMHB, 16 μg/mL rBPI21 with P105
[10] = CSMHB, 16 μg/mL rBPI21 with P123
[11] = Serum, 16 μg/mL rBPI21 with F68
[12] = Serum, 16 μg/mL rBPI21 with P103
[13] = Serum, 16 μg/mL rBPI21 with P104
[14] = Serum, 16 μg/mL rBPI21 with P105
[15] = Serum, 16 μg/mL rBPI21 with P123

Row | Compound | Minimum Inhibitory Concentration of Antibiotic ([1]; Control (No BPI21)) | susceptibility interpretation of MIC (superscript) ([1]; Control (No BPI21)) | Minimum Inhibitory Concentration of Antibiotic [1, 2] | susceptibility interpretation of MIC (superscript) [1, 2] | Minimum Inhibitory Concentration of Antibiotic [1, 3] | susceptibility interpretation of MIC (superscript) [1, 3] | Minimum Inhibitory Concentration of Antibiotic [1, 4] | susceptibility interpretation of MIC (superscript) [1, 4] | Minimum Inhibitory Concentration of Antibiotic [1, 5] | susceptibility interpretation of MIC (superscript) [1, 5] | effect of EDTA added to the rBPI21/P123 formulation on susceptibility of the strain to the antibiotic [1] | MIC (A. baumannii; [6]) | MIC (A. baumannii; [7]) | MIC (A. baumannii; [8]) | MIC (A. baumannii; [9]) | MIC (A. baumannii; [10]) | MIC (A. baumannii; CSMHB, Control (no BPI)) | MIC (A. baumannii; [11]) | MIC (A. baumannii; [12]) | MIC (A. baumannii; [13]) | also measured
1 | CO/N=C(\C(=O)N[C@@H]1C(=O)N2C(C(=O)O)=C(CSc3nc(=O)c(=O)[nH]n3C)CS[C@H]12)c1csc(N)n1 [Ceftriaxone] | 16 µg/mL | I | 4 µg/mL | S | 8 µg/mL | S | < 2 µg/mL | S | < 2 µg/mL | S | increasing the susceptibility | > 128 µg/mL | < 1 µg/mL | < 1 µg/mL | < 1 µg/mL | < 1 µg/mL | 128 µg/mL (≈ 231 µM) | > 128 µg/mL | > 128 µg/mL | > 128 µg/mL | MIC (A. baumannii; [14]): > 128 µg/mL; MIC (A. baumannii; [15]): > 128 µg/mL; MIC (A. baumannii; Serum, Control (no BPI)): > 128 µg/mL; susceptibility interpretation of MIC (superscript) (A. baumannii; [6]): R; susceptibility interpretation of MIC (superscript) (A. baumannii; [7]): S; susceptibility interpretation of MIC (superscript) (A. baumannii; [8]): S; susceptibility interpretation of MIC (superscript) (A. baumannii; [9]): S; susceptibility interpretation of MIC (superscript) (A. baumannii; [10]): S; susceptibility interpretation of MIC (superscript) (A. baumannii; CSMHB, Control (no BPI)): R; susceptibility interpretation of MIC (superscript) (A. baumannii; [11]): R; susceptibility interpretation of MIC (superscript) (A. baumannii; [12]): R; susceptibility interpretation of MIC (superscript) (A. baumannii; [13]): R; susceptibility interpretation of MIC (superscript) (A. baumannii; [14]): R; susceptibility interpretation of MIC (superscript) (A. baumannii; [15]): R; susceptibility interpretation of MIC (superscript) (A. baumannii; Serum, Control (no BPI)): R
2 | CO/N=C(\C(=O)N[C@@H]1C(=O)N2C(C(=O)O)=CCS[C@H]12)c1csc(N)n1 [Ceftizoxime] | 32 µg/mL | I | 16 µg/mL | I | < 2 µg/mL | S | 8 µg/mL | S | < 2 µg/mL | S | increasing the susceptibility |  |  |  |  |  |  |  |  |  | 
3 | CC(C)(O/N=C(\C(=O)N[C@@H]1C(=O)N2C(C(=O)[O-])=C(C[n+]3ccccc3)CS[C@H]12)c1csc(N)n1)C(=O)O [Ceftazidime] | 2 µg/mL | S | < 1 µg/mL | S | < 1 µg/mL | S | < 1 µg/mL | S | < 1 µg/mL | S |  | 32 µg/mL (≈ 58.5 µM) | < 4 µg/mL | < 4 µg/mL | < 4 µg/mL | < 4 µg/mL | 16 µg/mL (≈ 29.3 µM) | 32 µg/mL (≈ 58.5 µM) | 16 µg/mL (≈ 29.3 µM) | 16 µg/mL (≈ 29.3 µM) | MIC (A. baumannii; [14]): 16 µg/mL (≈ 29.3 µM); MIC (A. baumannii; [15]): 16 µg/mL (≈ 29.3 µM); MIC (A. baumannii; Serum, Control (no BPI)): > 32 µg/mL; susceptibility interpretation of MIC (superscript) (A. baumannii; [6]): R; susceptibility interpretation of MIC (superscript) (A. baumannii; [7]): S; susceptibility interpretation of MIC (superscript) (A. baumannii; [8]): S; susceptibility interpretation of MIC (superscript) (A. baumannii; [9]): S; susceptibility interpretation of MIC (superscript) (A. baumannii; [10]): S; susceptibility interpretation of MIC (superscript) (A. baumannii; CSMHB, Control (no BPI)): I; susceptibility interpretation of MIC (superscript) (A. baumannii; [11]): R; susceptibility interpretation of MIC (superscript) (A. baumannii; [12]): I; susceptibility interpretation of MIC (superscript) (A. baumannii; [13]): I; susceptibility interpretation of MIC (superscript) (A. baumannii; [14]): I; susceptibility interpretation of MIC (superscript) (A. baumannii; [15]): I; susceptibility interpretation of MIC (superscript) (A. baumannii; Serum, Control (no BPI)): R
4 | O=C(N[C@H](CO)[C@H](O)c1ccc([N+](=O)[O-])cc1)C(Cl)Cl [Chloramphenicol] | > 16 µg/mL | R | 8 µg/mL | S | 16 µg/mL | I | < 2 µg/mL | S | < 2 µg/mL | S | reversing resistance | 1 µg/mL (≈ 3.09 µM) | < 0.5 µg/mL | 1 µg/mL (≈ 3.09 µM) | < 0.5 µg/mL | < 0.5 µg/mL | > 4 µg/mL | > 4 µg/mL | 2 µg/mL (≈ 6.19 µM) | 4 µg/mL (≈ 12.4 µM) | MIC (A. baumannii; [14]): > 4 µg/mL; MIC (A. baumannii; [15]): > 4 µg/mL; MIC (A. baumannii; Serum, Control (no BPI)): > 4 µg/mL; susceptibility interpretation of MIC (superscript) (A. baumannii; [6]): S; susceptibility interpretation of MIC (superscript) (A. baumannii; [7]): S; susceptibility interpretation of MIC (superscript) (A. baumannii; [8]): S; susceptibility interpretation of MIC (superscript) (A. baumannii; [9]): S; susceptibility interpretation of MIC (superscript) (A. baumannii; [10]): S; susceptibility interpretation of MIC (superscript) (A. baumannii; CSMHB, Control (no BPI)): R; susceptibility interpretation of MIC (superscript) (A. baumannii; [11]): R; susceptibility interpretation of MIC (superscript) (A. baumannii; [12]): S; susceptibility interpretation of MIC (superscript) (A. baumannii; [13]): R; susceptibility interpretation of MIC (superscript) (A. baumannii; [14]): R; susceptibility interpretation of MIC (superscript) (A. baumannii; [15]): R; susceptibility interpretation of MIC (superscript) (A. baumannii; Serum, Control (no BPI)): R
